The record followed here is PubChem BioAssay (NCI).

Test in all cases: NCI anticancer screen, dose series, 48 h
The subject of experiment [1] is 786-0 renal.
The subject of experiment [2] is A549 NSCLC.
Experiment [3] relates to HOP-62 NSCLC.
Experiment [4] relates to HOP-92 NSCLC.
The subject of experiment [5] is NCI-H226 lung.
The subject of experiment [6] is OVCAR-4 ovarian.
Experiment [7] relates to SF-268 CNS.
Experiment [8] deals with SF-539 CNS.
The subject of experiment [9] is U251 CNS.
Experiment [10] relates to MDA-MB-435.

The structures appear in SMILES notation.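 Cultured in 96-well plates, cells were exposed to test compound for 48 hours across five concentrations. GI50 is the concentration that inhibits growth by half. TGI marks complete inhibition of growth.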

With `CCCCCCCC(=O)NCC(O)CNC(=O)CCCCCCC`, the TGI in experiment [1], in [2], in [3], in experiment [4], in [5] and in experiment [6] was over 100 µM throughout. The TGI in [7], in experiment [8] and in [9] was over 100 µM each time.

As to `COc1cccc(C2C3=C(COC3=O)N(CCO)c3cc(OC)ccc32)c1` (configuration not stated), the GI50 was 0.148 µM in experiment [1]; 0.12 µM in experiment [2]; 0.124 µM in experiment [3]; 0.0232 µM in experiment [10]; 0.182 µM in [5]; 0.153 µM in experiment [6]. The GI50 in [7] was 0.181 µM; in experiment [8], 0.0878 µM; in experiment [9] it was 0.0992 µM. Further, the TGI was over 29.6 µM in experiment [1]; over 100 µM in experiment [2]; over 100 µM in experiment [3]; 0.0631 µM in experiment [10]; 8.86 µM in experiment [5]; over 100 µM in experiment [6]. Also, the TGI in experiment [7] and in [9] was over 100 µM each time.

As for `C/C=C/C1=C(Cl)C(=O)[C@@H](Cl)[C@@]1(O)C(=O)OC`, the TGI in [1] amounted to 18 µM; in experiment [2], 24.3 µM; in experiment [3] it was 2.42 µM; in experiment [4] it was 6.22 µM; in experiment [5], 15.7 µM; in experiment [6], 5.59 µM. Besides, the values for the TGI in [7], in experiment [8] and in experiment [9] were 24.2 µM, 5.45 µM and 18.8 µM, respectively.

For `C=C(C)C1Cc2c(cc(OC)c3c(=O)c4cccc(O)c4oc23)O1` (configuration not stated), the TGI in experiment [1] stood at 32.9 µM; in [2], 88.8 µM; in experiment [3] it was 36.5 µM; in experiment [5] it was 44 µM; in experiment [6] it was 42.4 µM; in [7], 43.4 µM. Also, the TGI in experiment [8] was determined as 32.3 µM; in experiment [9] it was 34.8 µM.

Take `Nc1nc2sc3ccccc3c(=O)n2n1`: the TGI in [1], in experiment [2], in experiment [3], in experiment [4], in experiment [5] and in experiment [6] was over 100 µM in each case. Also, the TGI in experiment [7], in experiment [8] and in [9] was over 100 µM in each case.

Regarding `CCN1/C(=C/C=C/c2n(-c3ccccc3)c3ccc(-c4nc5ccccc5s4)cc3[n+]2CC)N(c2ccccc2)c2ccc(-c3nc4ccccc4s3)cc21`, the GI50 in experiment [1] is 0.602 µM; in experiment [2], 0.284 µM; in experiment [10], 1.35 µM; in experiment [5], 0.317 µM; in experiment [6] it was 0.765 µM; in experiment [7], 0.525 µM. For the same molecule, the GI50 in [8] was 0.854 µM; in [9], 0.274 µM. The TGI is over 50 µM in experiment [1]; over 26.1 µM in experiment [2]; over 50 µM in experiment [10]; 15.6 µM in [5]; over 50 µM in experiment [6]; over 50 µM in experiment [7]. Also, the results for the TGI in [8] and in experiment [9] were 5.75 µM and 1.92 µM, respectively.

Take `CCN(CC)CCCn1cnc2ncccc2c1=O`: the TGI in experiment [1], in [2], in experiment [3], in [4], in [5] and in [6] was over 100 µM each time. Besides, the TGI in experiment [7], in experiment [8] and in [9] was over 100 µM each time.

On to `CC(=O)N1c2ccccc2C2=CC3C4C(=O)N(c5ccccc5)C(=O)C4C21C1C(=O)N(c2ccccc2)C(=O)C31` (configuration not stated), for which the TGI in experiment [1] was over 100 µM; in [2], over 100 µM; in experiment [4] it was over 100 µM; in experiment [7], over 100 µM; in experiment [8], 6.66 µM; in [9], over 100 µM.

Consider `Cc1noc2cccc(OCc3ccccc3)c12`, for which the TGI in [1], in [2], in experiment [3], in experiment [4], in experiment [5] and in experiment [6] was over 100 µM throughout. Also, the TGI in experiment [7], in experiment [8] and in [9] was over 100 µM throughout.

In the case of `COc1ccc2c(c1)C(=O)N1CCOC1C2C(=O)O` (configuration not stated), the TGI in [1], in [2], in [3], in [4], in experiment [6] and in experiment [7] was over 100 µM each time. In addition, the TGI in experiment [8] and in experiment [9] was over 100 µM throughout.

For `O=C(O)C1=CCCc2ccc3ccccc3c21`, the TGI in experiment [1], in [2], in experiment [4], in [5], in [6] and in experiment [7] was over 100 µM in each case. Moreover, the TGI in experiment [8] and in experiment [9] was over 100 µM in each case.

As to `[Cl][Sn]([Cl])([c]1ccccc1)[c]1ccccc1`, the GI50 in experiment [1] is 4.8 µM; in [2], 19.8 µM; in experiment [4], 3.02 µM; in experiment [5] it was 17.7 µM; in experiment [6] it was 16.8 µM; in [7] it was 13.2 µM. For the same molecule, the results for the GI50 in experiment [8] and in [9] were 16 µM and 13.4 µM, respectively. Moreover, the TGI in experiment [1] turned out to be 16.7 µM; in experiment [2], 39.2 µM; in [4], 6.36 µM; in [5], 32.2 µM; in [6], 31 µM; in experiment [7] it was 30.4 µM. Further, the TGI was found to be 29.4 µM in [8] and 28.6 µM in experiment [9].

Turning to `CCOC(=O)c1c(-c2ccccc2)oc(-c2ccccc2)c1C(=O)OCC`, the TGI in experiment [1], in experiment [2], in experiment [3], in [4], in [5] and in [7] was over 100 µM each time. The TGI in experiment [8] and in experiment [9] was over 100 µM each time.
